Measurements as given in US12577247B2 (BUGWORKS RESEARCH, INC., priority 2021, dated 2026).

Tests used:
A2A receptor = molecular target: T1, A2A receptor (Homo sapiens, UniProt P29274); experiment: A2aR antagonism IC50, cAMP TR-FRET in HEK-293 cells, high concentration of adenosine (30 μM); assay type: cell-based; settings: HEK-293 cells expressing A2A receptor; agonist adenosine 30 μM; 2% HSA; inhibition of cAMP; read-out: A2AR IC50 (nM) (@30 μM Adenosine);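 also: compounds added 10 min before adenosine, then 30 min stimulation at room temperature in buffer with 100 µM rolipram and 30 µM EHNA, signal read 1 h after detection reagents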
T1 construct: host or cells: HEK-293
T1 sequence (P29274 whole entry): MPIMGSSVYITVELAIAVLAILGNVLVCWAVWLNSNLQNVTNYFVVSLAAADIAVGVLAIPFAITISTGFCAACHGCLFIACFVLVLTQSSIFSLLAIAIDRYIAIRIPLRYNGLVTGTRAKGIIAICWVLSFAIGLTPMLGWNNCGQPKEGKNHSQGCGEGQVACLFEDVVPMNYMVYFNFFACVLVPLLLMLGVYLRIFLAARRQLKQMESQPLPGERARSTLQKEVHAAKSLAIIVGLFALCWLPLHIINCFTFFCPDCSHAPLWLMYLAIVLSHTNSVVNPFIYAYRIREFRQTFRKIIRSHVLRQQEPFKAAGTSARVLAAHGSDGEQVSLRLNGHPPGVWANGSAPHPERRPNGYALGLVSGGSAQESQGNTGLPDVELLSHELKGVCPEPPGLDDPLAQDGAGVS
Method: A Time-Resolved Fluorescence Energy Transfer (TR-FRET) assay was used to show the inhibition of this cAMP production in HEK cells upon treatment with compounds of the Formula I of the present disclosure.
HEK-293 cells expressing A2A receptor (#ES-011-C) or A2B receptor (#ES 013-C) were obtained from PerkinElmer. Cells were maintained in DMEM medium supplemented with 10% FBS and 200 μg/mL of G418 at 37° C. and 5% CO2. The cells were cultured in antibiotic free medium for a period of 16-20 hours prior to the assay. All subsequent steps of the assay are performed at room temperature (22-24° C.). […] About 1500 cells per well were pre-incubated for 10 minutes with the compounds of the present invention before adding the agonist Adenosine at a high concentration (30 μM) for a total stimulation time of 30 minutes. […] The assays were conducted in a stimulation buffer containing 1×DMEM, 5 mM HEPES, 2% Human serum albumin (HSA), 100 μM Rolipram and 30 μM erythro-9-(2-hydroxy-3-nonyl) adenine (EHNA). Serial dilutions of compounds were made in stimulation buffer to achieve a final concentration of high micromolar in a reaction volume of 10 μL. The total reaction volume was 10 μL (5 μL of cells, 2.5 μL of antagonist and 2.5 μL of agonist). […] The stimulation was ended, and the reaction completed by adding 5 μL of 4× Eu-cAMP tracer working solution and 5 μL of 4× ULight-anti-cAMP working solution. The TR FRET signal was measured after 1-hour incubation using a Tecan M1000 or a PerkinElmer Victor Nivo plate reader.

A2B receptor = molecular target: T2, A2B receptor (Homo sapiens, UniProt P29275); experiment: A2bR antagonism IC50, cAMP TR-FRET in HEK-293 cells, high concentration of adenosine (30 μM); settings: A2BR IC50 (nM) (@30 μM Adenosine), HEK-293 cells expressing A2B receptor; agonist adenosine 30 μM; 2% HSA; inhibition of cAMP;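 also: compounds preincubated 10 min with cells, then adenosine stimulation 30 min at room temperature in buffer with Rolipram 100 µM and EHNA 30 µM, TR-FRET read after 1 h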
T2 sequence (P29275 1-332): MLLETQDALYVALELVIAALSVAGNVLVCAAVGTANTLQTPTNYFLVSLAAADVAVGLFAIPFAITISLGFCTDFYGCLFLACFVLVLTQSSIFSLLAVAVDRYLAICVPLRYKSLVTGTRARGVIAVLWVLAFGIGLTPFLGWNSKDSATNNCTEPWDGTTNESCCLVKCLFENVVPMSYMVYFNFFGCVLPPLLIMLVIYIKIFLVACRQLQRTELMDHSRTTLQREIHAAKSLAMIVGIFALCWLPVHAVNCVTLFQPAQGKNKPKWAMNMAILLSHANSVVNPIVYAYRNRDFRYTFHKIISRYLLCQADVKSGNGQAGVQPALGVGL

IC50 (A2A receptor) [nM]	IC50 (A2B receptor) [nM]	SMILES
66	2370	Cc1nn2c(N)c(C#N)c(NCCc3cc(C)n(C4(CO)CC4)n3)nc2c1Br [Example 89, 7-amino-3-bromo-5-((2-(1-(1-(hydroxymethyl)cyclopropyl)-5-methyl-1H-pyrazol-3-yl)ethyl)amino)-2-methylpyrazolo[1,5-a]pyrimidine-6-carbonitrile]
1460	> 15000	CCc1c(C(F)F)nn2c(N)c(C#N)c(NCCc3cccn(CCO)c3=O)nc12 [Example 131, 7-amino-2-(difluoromethyl)-3-ethyl-5-((2-(1-(2-hydroxyethyl)-2-oxo-1,2-dihydropyridin-3-yl)ethyl)amino) pyrazolo[1,5-a]pyrimidine-6-carbonitrile]
126	2220	CCc1c(C)nn2c(N)c(C#N)c(NCCc3ccn(C4(CCO)CC4)n3)nc12 [Example 124, 7-amino-3-ethyl-5-((2-(1-(1-(2-hydroxyethyl)cyclopropyl)-1H-pyrazol-3-yl)ethyl)amino)-2-methylpyrazolo[1,5-a] pyrimidine-6-carbonitrile]
75	4390	CCc1c(C)nn2c(N)c(C#N)c(NCCc3ccn(C4(CNCCO)CC4)n3)nc12 [Example 106, 7-amino-3-ethyl-5-((2-(1-(1-(((2-hydroxyethyl)amino)methyl)cyclopropyl)-1H-pyrazol-3-yl)ethyl)amino)-2-methylpyrazolo[1,5-a]pyrimidine-6-carbonitrile]
475	2510	CCc1c(C)nn2c(N)c(C#N)c(NCCc3ccn(C4CCC4CNCC(N)=O)n3)nc12 (stereo not drawn) [Example 134, 2-(((2-(3-(2-((7-amino-6-cyano-3-ethyl-2-methylpyrazolo[1,5-a]pyrimidin-5-yl)amino)ethyl)-1H-pyrazol-1-yl)cyclobutyl)methyl)amino) acetamide]
427	2100	Cc1nn2c(N)c(C#N)c(NCCc3ccn(C4CCC4CO)n3)nc2c1CC1CC1 (stereo not drawn) [Example 116, 7-amino-3-(cyclopropylmethyl)-5-((2-(1-(2-(hydroxymethyl)cyclobutyl)-1H-pyrazol-3-yl)ethyl)amino)-2-methylpyrazolo[1,5-a]pyrimidine-6-carbonitrile]
255	2470	CCc1c(C)nn2c(N)c(C#N)c(NCCc3ccn(C4(CN)CC4)n3)nc12 [Example 146, 7-amino-5-((2-(1-(1-(aminomethyl)cyclopropyl)-1H-pyrazol-3-yl)ethyl)amino)-3-ethyl-2-methylpyrazolo[1,5-a]pyrimidine-6-carbonitrile]
398	1080	Cc1nn2c(N)c(C#N)c(NCCc3ccn(C4(CO)CC4)n3)nc2c1CC1CC1 [Example 74, 7-amino-3-(cyclopropylmethyl)-5-((2-(1-(1-(hydroxymethyl)cyclopropyl)-1H-pyrazol-3-yl)ethyl)amino)-2-methylpyrazolo[1,5-a]pyrimidine-6-carbonitrile]
96	4380	Cc1nn2c(N)c(C#N)c(NCCc3ccn(C4CCCC4CO)n3)nc2c1Cl (stereo not drawn) [Example 114, 7-amino-3-chloro-5-((2-(1-(2-(hydroxymethyl)cyclopentyl)-1H-pyrazol-3-yl)ethyl)amino)-2-methylpyrazolo[1,5-a]pyrimidine-6-carbonitrile]
50	1590	CCc1c(C)nn2c(N)c(C#N)c(NCCc3cc(C)n(C4(CO)CC4)n3)nc12 [Example 76, 7-amino-3-ethyl-5-((2-(1-(1-(hydroxymethyl)cyclopropyl)-5-methyl-1H-pyrazol-3-yl)ethyl)amino)-2-methylpyrazolo[1,5-a]pyrimidine-6-carbonitrile]
161	9380	Cc1nn2c(N)c(C#N)c(NCCc3ccn(C4(CN)CC4)n3)nc2c1Cl [Example 68, 7-amino-5-((2-(1-(1-(aminomethyl)cyclopropyl)-1H-pyrazol-3-yl)ethyl)amino)-3-chloro-2-methylpyrazolo[1,5-a]pyrimidine-6-carbonitrile]
224	1550	CCc1c(C)nn2c(N)c(C#N)c(NCCc3cccn(CCOC)c3=O)nc12 [Example 107, 7-amino-3-ethyl-5-((2-(1-(2-methoxyethyl)-2-oxo-1,2-dihydropyridin-3-yl)ethyl)amino)-2-methylpyrazolo[1,5-a] pyrimidine-6-carbonitrile]
1310	2220	CCc1c(C)nn2c(N)c(C#N)c(NCCc3cccc(C(O)C(F)(F)F)n3)nc12 (stereo not drawn) [Example 135, 7-amino-3-ethyl-2-methyl-5-((2-(6-(2,2,2-trifluoro-1-hydroxyethyl)pyridine-2-yl)ethyl)amino) pyrazolo[1,5-a]pyrimidine-6 carbonitrile]
457	1020	CCc1c(C)nn2c(N)c(C#N)c(NCCc3cccc(C(C)O)n3)nc12 (single isomer, unassigned; (-)) [Example 159b, (−)-7-amino-3-ethyl-5-((2-(6-(1-hydroxyethyl)pyridine-2-yl)ethyl)amino)-2-methylpyrazolo[1,5-a]pyrimidine-6-carbonitrile]
286	1300	CCc1c(C)nn2c(N)c(C#N)c(NCCc3cccn(C)c3=O)nc12 [Example 88, 7-amino-3-ethyl-2-methyl-5-((2-(1-methyl-2-oxo-1,2-dihydropyridin-3-yl)ethyl)amino) pyrazolo[1,5-a]pyrimidine-6-carbonitrile]
69	20000	Cc1nn2c(N)c(C#N)c(NCCc3ccn(C4(CNC(=O)CCO)CC4)n3)nc2c1Cl [Example 99, N-((1-(3-(2-((7-amino-3-chloro-6-cyano-2-methylpyrazolo[1,5-a]pyrimidin-5-yl)amino)ethyl)-1H-pyrazol-1-yl)cyclopropyl)methyl)-3-hydroxypropanamide]
1150	1630	CCc1c(C)nn2c(N)c(C#N)c(NCCc3cccc(OCCO)n3)nc12 [Example 150, 7-amino-3-ethyl-5-((2-(6-(2-hydroxyethoxy)pyridin-2-yl)ethyl)amino)-2-methylpyrazolo[1,5-a] pyrimidine-6-carbonitrile]
77	1830	Cc1nn2c(N)c(C#N)c(NCCc3cccc(CNCCO)n3)nc2c1Cl [Example 90, 7-amino-3-chloro-5-((2-(6-(((2-hydroxyethyl)amino)methyl)pyridin-2-yl)ethyl)amino)-2-methylpyrazolo[1,5-a]pyrimidine-6-carbonitrile]
125	> 15000	CCn1cccc(CCNc2nc3c(Cl)c(C)nn3c(N)c2C#N)c1=O [Example 70, 7-amino-3-chloro-5-((2-(1-ethyl-2-oxo-1,2-dihydropyridin-3-yl)ethyl)amino)-2-methylpyrazolo[1,5-a]pyrimidine-6-carbonitrile]
1890	3550	CCc1c(C)nn2c(N)c(C#N)c(NCCc3cccn(CCN)c3=O)nc12 [Example 126, 7-amino-5-((2-(1-(2-aminoethyl)-2-oxo-1,2-dihydropyridin-3-yl)ethyl)amino)-3-ethyl-2-methylpyrazolo[1,5-a] pyrimidine-6-carbonitrile]
8260	> 15000	CCCc1c(C)nn2c(N)c(C#N)c(NCCc3cccc(C)n3)nc12 [Example 164, 7-amino-2-methyl-5-((2-(6-methylpyridin-2-yl)ethyl)amino)-3-propylpyrazolo[1,5-a]pyrimidine-6-carbonitrile]
